Assay results: ChEMBL document CHEMBL3580625, “The synthesis and functional evaluation of a mitochondria-targeted hydrogen sulfide donor, (10-oxo-10-(4-(3-thioxo-3H-1,2-dithiol-5-yl)phenoxy)decyl)triphenylphosphonium bromide (AP39)” (Medchemcomm, 2014)
Calls of active or inactive are those of the source. The calls are words filed in the database; no cut-off is given here.

What was measured:
hCMEC/D3 [1] = assay: (§1) Cytoprotective activity in human CMEC/D3 cells assessed as inhibition of SIN-1-induced oxidative stress-mediated toxicity by measuring cell viability at 100 nM preincubated for 1 hr followed by SIN-1 induction measured after 24 hrs by Alamar blue assay; type: functional, cell-based
hCMEC/D3 [2] = assay: (§2) Cytoprotective activity in human CMEC/D3 cells assessed as inhibition of H2O2-induced oxidative stress-mediated toxicity by measuring cell viability at 100 nM preincubated for 1 hr followed by H2O2 induction measured after 24 hrs by Alamar blue assay; type: functional, cell-based
hCMEC/D3 [3] = assay: (§3) Cytoprotective activity in human CMEC/D3 cells assessed as inhibition of 4-HNE-induced oxidative stress-mediated toxicity by measuring cell viability at 100 nM preincubated for 1 hr followed by 4-HNE induction measured after 24 hrs by Alamar blue assay; type: functional, cell-based
hCMEC/D3 [4] = assay: as §1, with “assay in presence of 5-(4-hydroxyphenyl)-3H-1,2-dithiole-3-thione” for “assay”; type: functional, cell-based
hCMEC/D3 [5] = assay: as §2, with “assay in presence of 5-(4-hydroxyphenyl)-3H-1,2-dithiole-3-thione” for “assay”; type: functional, cell-based
hCMEC/D3 [6] = assay: as §3, with “assay in presence of 5-(4-hydroxyphenyl)-3H-1,2-dithiole-3-thione” for “assay”; type: functional, cell-based
hCMEC/D3 [7] = assay: Induction of H2S production in human CMEC/D3 cells after 1 hr by WSP-1 probe-based fluorescence assay; type: functional, cell-based
Mus musculus [8] = organism: Mus musculus; assay: Induction of H2S production in mouse bEND.3 cells at 100 nM after 1 hr by AzMC fluorescent probe-based inverted microscopic analysis; type: functional, cell-based
Mus musculus [9] = organism: Mus musculus; assay: Induction of H2S production in mitochondria of mouse bEND.3 cells at 100 nM after 1 hr by MitoTracker Red fluorescent probe-based inverted microscopic analysis; type: functional
[10] = Cytotoxicity against human CMEC/D3 cells up to 5 uM after 24 hrs by Alamar blue assay relative to vehicle-treated control; type: cell-based; conditions: hcmec/d3, 24 h
hCMEC/D3 [11] = assay: Cytoprotective activity in human CMEC/D3 cells assessed as inhibition of SIN-1-induced oxidative stress-mediated loss of mitochondrial membrane potential at 100 nM preincubated for 1 hr followed by SIN-1 induction measured after 24 hrs by TMRM fluorescent probe-based fluorimetric analysis; type: functional, cell-based
hCMEC/D3 [12] = assay: Cytoprotective activity in human CMEC/D3 cells assessed as inhibition of H2O2-induced oxidative stress-mediated loss of mitochondrial membrane potential at 100 nM preincubated for 1 hr followed by H2O2 induction measured after 24 hrs by TMRM fluorescent probe-based fluorimetric analysis; type: functional, cell-based
hCMEC/D3 [13] = assay: Cytoprotective activity in human CMEC/D3 cells assessed as inhibition of 4-HNE-induced oxidative stress-mediated loss of mitochondrial membrane potential at 100 nM preincubated for 1 hr followed by 4-HNE induction measured after 24 hrs by TMRM fluorescent probe-based fluorimetric analysis; type: functional, cell-based
hCMEC/D3 [14] = assay: Cytoprotective activity in human CMEC/D3 cells assessed as inhibition of SIN-1-induced mitochondrial production of reactive oxygen species at 100 nM preincubated for 1 hr followed by SIN-1 induction measured after 24 hrs by MitoSox Red probe-based fluorescence assay; type: functional, cell-based
hCMEC/D3 [15] = assay: Cytoprotective activity in human CMEC/D3 cells assessed as inhibition of H2O2-induced mitochondrial production of reactive oxygen species at 100 nM preincubated for 1 hr followed by H2O2 induction measured after 24 hrs by MitoSox Red probe-based fluorescence assay; type: functional, cell-based
hCMEC/D3 [16] = assay: Cytoprotective activity in human CMEC/D3 cells assessed as inhibition of 4-HNE-induced mitochondrial production of reactive oxygen species at 100 nM preincubated for 1 hr followed by 4-HNE induction measured after 24 hrs by MitoSox Red probe-based fluorescence assay; type: functional, cell-based
[17] = Cytotoxicity against human CMEC/D3 cells assessed as effect on mitochondrial membrane potential at 100 nM by TMRM fluorescent probe-based fluorimetric analysis; type: cell-based; conditions: hcmec/d3, 0.1 µM
[18] = Cytotoxicity against human CMEC/D3 cells assessed as effect on mitochondrial oxidant production at 100 nM by MitoSox Red probe-based fluorescence assay; type: cell-based; conditions: hcmec/d3, 0.1 µM
hCMEC/D3 [19] = assay: Cytoprotective activity in human CMEC/D3 cells assessed as inhibition of rotenone-induced mitochondrial production of reactive oxygen species at 100 nM preincubated for 1 hr followed by rotenone induction by MitoSox Red probe-based fluorescence assay; type: functional, cell-based
hCMEC/D3 [20] = assay: Cytoprotective activity in human CMEC/D3 cells assessed as inhibition of rotenone-mediated reduction of ATP level at 100 nM preincubated for 1 hr followed by rotenone induction measured after 18 hrs by firefly lantern luciferase reporter assay; type: functional, cell-based

| SMILES | inhibition (hCMEC/D3 [1]) | inhibition (hCMEC/D3 [2]) | inhibition (hCMEC/D3 [3]) | inhibition (hCMEC/D3 [4]) | inhibition (hCMEC/D3 [5]) | inhibition (hCMEC/D3 [6]) | Activity (hCMEC/D3 [7]) | Activity (Mus musculus [8]) | Activity (Mus musculus [9]) | Activity [10] | inhibition (hCMEC/D3 [11]) | inhibition (hCMEC/D3 [12]) | inhibition (hCMEC/D3 [13]) | inhibition (hCMEC/D3 [14]) | inhibition (hCMEC/D3 [15]) | inhibition (hCMEC/D3 [16]) | Activity [17] | Activity [18] | inhibition (hCMEC/D3 [19]) | inhibition (hCMEC/D3 [20]) |
| --- | --- | --- | --- | --- | --- | --- | --- | --- | --- | --- | --- | --- | --- | --- | --- | --- | --- | --- | --- | --- |
| O=C(O)CCCCCCCCC[P+](c1ccccc1)(c1ccccc1)c1ccccc1 | inactive | inactive | inactive | inactive | inactive | inactive | – | – | – | – | – | – | – | – | – | – | – | – | – | – |
| Oc1ccc(-c2cc(=S)ss2)cc1 | inactive | inactive | inactive | – | – | – | – | – | – | – | – | – | – | – | – | – | – | – | – | – |
| O=C(CCCCCCCCC[P+](c1ccccc1)(c1ccccc1)c1ccccc1)Oc1ccc(-c2cc(=S)ss2)cc1.[Br-] | – | – | – | – | – | – | Dose-dependent effect | Active | Active | Non-toxic | Active | Active | Active | Active | Active | Active | Non-toxic | Non-toxic | Active | Active |
